Data as given in PubChem BioAssay (NCI).
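Exposure lasted 48 hours, with cells grown in 96-well plates and compounds tested at five concentrations. Here, GI50 denotes the concentration required for 50% inhibition of growth. TGI: concentration producing complete growth inhibition.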

How the values were obtained:
Assay in all cases: DTP human tumour cell line panel, 48 h; in the data active = GI50 below about 0.43 µM; inactive = the rest
NCI-H460 lung = test system: NCI-H460 lung
RXF 393 renal = test system: RXF 393 renal
COLO 205 colon = test system: COLO 205 colon
SK-MEL-28 melanoma = test system: SK-MEL-28 melanoma
SK-MEL-5 melanoma = test system: SK-MEL-5 melanoma
U251 CNS = test system: U251 CNS
SW-620 colon = test system: SW-620 colon
HCT-116 colon = test system: HCT-116 colon
SF-295 CNS = test system: SF-295 CNS
MDA-MB-435 = test system: MDA-MB-435
OVCAR-4 ovarian = test system: OVCAR-4 ovarian
LOX IMVI melanoma = test system: LOX IMVI melanoma
CAKI-1 renal = test system: CAKI-1 renal
CCRF-CEM leukemia = test system: CCRF-CEM leukemia
M14 melanoma = test system: M14 melanoma
MOLT-4 leukemia = test system: MOLT-4 leukemia
K-562 leukemia = test system: K-562 leukemia
NCI-H226 lung = test system: NCI-H226 lung
HOP-62 NSCLC = test system: HOP-62 NSCLC
A498 renal = test system: A498 renal
SF-268 CNS = test system: SF-268 CNS
T-47D breast = test system: T-47D breast
SK-MEL-2 melanoma = test system: SK-MEL-2 melanoma
786-0 renal = test system: 786-0 renal
OVCAR-5 ovarian = test system: OVCAR-5 ovarian
MALME-3M melanoma = test system: MALME-3M melanoma
BT-549 breast = test system: BT-549 breast
SN12C renal = test system: SN12C renal
SNB-75 CNS = test system: SNB-75 CNS
UO-31 renal = test system: UO-31 renal
HS 578T breast = test system: HS 578T breast
OVCAR-8 ovarian = test system: OVCAR-8 ovarian
NCI-H522 lung = test system: NCI-H522 lung
ACHN renal = test system: ACHN renal
MDA-MB-231 breast = test system: MDA-MB-231 breast
NCI/ADR-RES ovarian = test system: NCI/ADR-RES ovarian
SF-539 CNS = test system: SF-539 CNS
SNB-19 CNS = test system: SNB-19 CNS
SR leukemia = test system: SR leukemia
HL-60(TB) leukemia = test system: HL-60(TB) leukemia
NCI-H23 lung = test system: NCI-H23 lung
HCT-15 colon = test system: HCT-15 colon
SK-OV-3 ovarian = test system: SK-OV-3 ovarian
PC-3 prostate = test system: PC-3 prostate
RPMI-8226 leukemia = test system: RPMI-8226 leukemia
HCC-2998 colon = test system: HCC-2998 colon
TK-10 renal = test system: TK-10 renal
MCF7 breast = test system: MCF7 breast
HOP-92 NSCLC = test system: HOP-92 NSCLC
DU-145 prostate = test system: DU-145 prostate
HT29 colon = test system: HT29 colon
IGROV1 ovarian = test system: IGROV1 ovarian
KM12 colon = test system: KM12 colon
A549 NSCLC = test system: A549 NSCLC
UACC-62 melanoma = test system: UACC-62 melanoma
OVCAR-3 ovarian = test system: OVCAR-3 ovarian

O=C(Nc1ccc2[nH]c3ccccc3c2c1)c1ccccc1Cl
inactive: GI50 (NCI-H460 lung) 3.75 µM | GI50 (RXF 393 renal) 2490 nM | GI50 (COLO 205 colon) 3.5 µM | GI50 (SK-MEL-28 melanoma) 5.95 µM | GI50 (SK-MEL-5 melanoma) 2880 nM | GI50 (U251 CNS) 4.62 µM | GI50 (SW-620 colon) 3.91 µM | GI50 (HCT-116 colon) 4.86 µM | GI50 (SF-295 CNS) 3.63 µM | GI50 (MDA-MB-435) 969 nM | GI50 (OVCAR-4 ovarian) 6.83 µM | GI50 (LOX IMVI melanoma) 3.41 µM | GI50 (CAKI-1 renal) 3.47 µM | GI50 (CCRF-CEM leukemia) 3.7 µM | GI50 (M14 melanoma) 3.81 µM | GI50 (MOLT-4 leukemia) 5.86 µM | GI50 (K-562 leukemia) 2630 nM | GI50 (NCI-H226 lung) 5.53 µM | GI50 (HOP-62 NSCLC) 59.4 µM | GI50 (A498 renal) 2320 nM | GI50 (SF-268 CNS) 6.77 µM | GI50 (T-47D breast) 8.21 µM | GI50 (SK-MEL-2 melanoma) 5.35 µM | GI50 (786-0 renal) 4.05 µM | GI50 (OVCAR-5 ovarian) 10.3 µM | GI50 (MALME-3M melanoma) 4.64 µM | GI50 (BT-549 breast) 5.63 µM | GI50 (SN12C renal) 5.16 µM | GI50 (SNB-75 CNS) 2800 nM | GI50 (UO-31 renal) 5.2 µM | GI50 (HS 578T breast) 3.84 µM | GI50 (OVCAR-8 ovarian) 6.33 µM | GI50 (NCI-H522 lung) 2920 nM | GI50 (ACHN renal) 4.98 µM | GI50 (MDA-MB-231 breast) 2960 nM | GI50 (NCI/ADR-RES ovarian) 3.64 µM | GI50 (SF-539 CNS) 2490 nM | GI50 (SNB-19 CNS) 8.16 µM | GI50 (SR leukemia) 2700 nM | GI50 (HL-60(TB) leukemia) 3.07 µM | GI50 (NCI-H23 lung) 12.2 µM | GI50 (HCT-15 colon) 2950 nM | GI50 (SK-OV-3 ovarian) 8.46 µM | GI50 (PC-3 prostate) 3.31 µM | GI50 (RPMI-8226 leukemia) 4.42 µM | GI50 (HCC-2998 colon) 3.84 µM | GI50 (TK-10 renal) 7.25 µM | GI50 (MCF7 breast) 3.57 µM | GI50 (HOP-92 NSCLC) 2840 nM | GI50 (DU-145 prostate) 6.09 µM | GI50 (HT29 colon) 3.78 µM | GI50 (IGROV1 ovarian) 8.85 µM | GI50 (KM12 colon) 2320 nM | GI50 (A549 NSCLC) 4.32 µM | GI50 (UACC-62 melanoma) 6.53 µM | GI50 (OVCAR-3 ovarian) 3.43 µM
> 100 µM: TGI (NCI-H460 lung) | TGI (COLO 205 colon) | TGI (SK-MEL-28 melanoma) | TGI (SK-MEL-5 melanoma) | TGI (U251 CNS) | TGI (SW-620 colon) | TGI (HCT-116 colon) | TGI (SF-295 CNS) | TGI (MDA-MB-435) | TGI (OVCAR-4 ovarian) | TGI (CAKI-1 renal) | TGI (CCRF-CEM leukemia) | TGI (M14 melanoma) | TGI (MOLT-4 leukemia) | TGI (K-562 leukemia) | TGI (NCI-H226 lung) | TGI (HOP-62 NSCLC) | TGI (SF-268 CNS) | TGI (T-47D breast) | TGI (OVCAR-5 ovarian) | TGI (MALME-3M melanoma) | TGI (BT-549 breast) | TGI (SN12C renal) | TGI (UO-31 renal) | TGI (OVCAR-8 ovarian) | TGI (ACHN renal) | TGI (NCI/ADR-RES ovarian) | TGI (SNB-19 CNS) | TGI (SR leukemia) | TGI (HL-60(TB) leukemia) | TGI (NCI-H23 lung) | TGI (HCT-15 colon) | TGI (SK-OV-3 ovarian) | TGI (PC-3 prostate) | TGI (RPMI-8226 leukemia) | TGI (TK-10 renal) | TGI (MCF7 breast) | TGI (HOP-92 NSCLC) | TGI (DU-145 prostate) | TGI (HT29 colon) | TGI (IGROV1 ovarian) | TGI (A549 NSCLC) | TGI (UACC-62 melanoma)
9.66 µM: TGI (NCI-H522 lung)
20.4 µM: TGI (MDA-MB-231 breast)
7.22 µM: TGI (SF-539 CNS)
18.5 µM: TGI (HCC-2998 colon)
12.8 µM: TGI (OVCAR-3 ovarian)
39 µM: TGI (LOX IMVI melanoma)
8.99 µM: TGI (RXF 393 renal)
24.6 µM: TGI (SNB-75 CNS)
86.8 µM: TGI (HS 578T breast)
9.19 µM: TGI (A498 renal)
51 µM: TGI (786-0 renal)
74.8 µM: TGI (SK-MEL-2 melanoma)
11.6 µM: TGI (KM12 colon)
